Series [1] can be described thus: Comparison of dye emission maxima and quenching. The series is classed as physicochemical. The following applies: IRDye 800CW samples, excitation 770 nm; for Peak fluorescence emission intensity: PBS pH 7.4; for Percent Quenching: versus dye-linker standard. How it is done: Solutions of dye-linker standards and dye-linker-quencher samples were diluted into PBS buffer (pH 7.4) to give a dye-specific absorbance less than 0.2 AU. The fluorescence spectra of each dilution were then taken at a consistent excitation wavelength (670 nm for HETD and 770 nm for IRDye 800CW). The emission spectra were collected from 680-1000 nm for the HETD samples and 780-1000 nm for the IRDye 800CW samples.

The conditions of series [2]: IRDye 800CW used as standard; cited from earlier work.
Series [3] is described as follows: Photophysical properties (absorption, emission, fluorescence intensity, quantum yield) versus IRDye 800CW. The series is classed as physicochemical.
A short description of series [4]: Absorption wavelength of the cyanine dyes in methanol (halo substitution effect). Type of series: physicochemical. The conditions noted are these: Table 2. An excerpt:
[table] Design Principle: We analyzed the properties of a dye scaffold and related compounds and the corresponding substitution effects on the excitation and emission wavelengths. The small size of fluorine is unlikely to produce steric effects, therefore, we explored the electronic effects of fluorine and related substitutions. The Hammett equation (σ-value) is an important tool to understand the electronic effects of the substituents, therefore, we explored the correlation of the wavelength (λMeOH) and the σ-value (vide infra): […]

A short description of series [5]: In vivo clearance imaging in nude mice (Pearl Impulse). The following applies: 1 nmole; for Total (signal): 800 channel. As to the method: Two nude mice were injected with 1 nmole of either compound 16 or IRDye 800CW carboxylate. They were then imaged longitudinally over the next 24 h with the Pearl Impulse imaging system. The results are presented in FIG. 9: in vivo clearance in nudes (FIG. 9A), whole body dorsal views (FIG. 9B), and the rate of clearance (FIG. 9C). The clearance data is presented below in Table 4.

The test system of series [6] is U87GM cells. In words: Immunocytochemical binding, blocking and carboxylate control assay in U87GM cells. The series is classed as cell-based. The conditions noted are these: tested up to 5 μM, noted above 2 μM. How it is done: RGD (Arg-Gly-Asp), the recognition motif used to bind the integrin receptors, was labeled with compound 17. The characteristics of RGD/17 conjugate and the analogous dye carboxylate 16 were evaluated in a cell-based assay.
Immunocytochemical assays provide a tool for screening a compound for specificity of a labeled agent. Binding assays give valuable information on affinity of the labeled agent to the intended target.
Compound 17 was conjugated to the peptide RGD by the general procedure set forth in Example 32.
The cell lines U87GM and PC3MLN4 were assayed. Assays included binding, blocking, and carboxylate control. Serial dilutions of compound 16 were prepared at concentrations of 200-6.25 nM. Blocking was accomplished with unlabeled RGD at concentrations of 10-0.31 μM with the addition of 200 nM compound 17-RGD conjugates in all test wells. The compound 16 was evaluated as a dye control for non-specific binding at relatively high levels from 5-0.16 μM with U87GM cells and 1-0.002 μM with PC3 cells.
In the second round of testing with U87GM cells, concentrations of unlabeled RGD and compound 17/RGD were increased (FIGS. 8A and 8B). Binding assay concentrations utilized 0.8-400 nM while the blocking assay used 0.06-30 μM unlabeled RGD with an addition of 200 nM 17/RGD.

For the compound `CC1(C)C(/C=C/C2=C(Oc3ccc(S(=O)(=O)[O-])cc3)C(=C/C=C3/N(CCCCS(=O)(=O)[O-])c4ccc(S(=O)(=O)[O-])cc4C3(C)C)/CCC2)=[N+](CCCCCC(=O)NCCOCCOCCOCCOCCOCCOCCOCCOCCOCCOCCOCCNC(=O)CCCCC[N+]2=C(/C=C/C3=C(c4ccccc4F)C(=C/C=C4/N(CCCS(=O)(=O)[O-])c5ccc(N(CCCS(=O)(=O)[O-])CCCS(=O)(=O)[O-])cc5C4(C)C)/CCC3)C(C)(C)c3c2ccc2cc(S(=O)(=O)[O-])ccc32)c2ccc(S(=O)(=O)[O-])cc21.[Na+].[Na+].[Na+].[Na+].[Na+].[Na+]` [Compound 39], in series [1], the “Peak fluorescence emission intensity” value is recorded as 438981 and the “Percent Quenching” value is given as 65.5%.
For `CC1(C)C(=CC=C2CCCC(C=CC3=[N+](CCCCCC(=O)[O-])c4ccc(S(=O)(=O)[O-])cc4C3(C)C)=C2Oc2ccc(S(=O)(=O)[O-])cc2)N(CCCCS(=O)(=O)[O-])c2ccc(S(=O)(=O)[O-])cc21.[Na+].[Na+].[Na+].[Na+]` [IRDye 800CW, reference compound], the “Quantum Yield of the standard” value in series [2] is given as 0.07. In addition, in series [3] (0.1 μM solutions in 1XPBS, Odyssey), the “Fl Intensity of X / Fl Intensity of 800 CW, Odyssey” value is 100%. The “Fl Intensity of X / Fl Intensity of 800 CW, Fluorimeter” value in series [3] (0.1 μM solutions in 1XPBS, fluorimeter) is on record as 100%. Besides, in series [3] (in PBS), the “Abs Max PBS” value was 775 nm and the “EmMax PBS” value is listed as 790 nm.
Take `CC1(C)C(/C=C/C2=C(c3c(F)cc(F)cc3F)C(=C/C=C3/N(CCCS(=O)(=O)[O-])c4ccc(S(=O)(=O)[O-])cc4C3(C)C)/CC(C(=O)O)C2)=[N+](CCCS(=O)(=O)[O-])c2ccc(S(=O)(=O)[O-])cc21.[Na+].[Na+].[Na+]` (centres unmarked) [Compound 16]: the λMeOH in series [4] stood at 785 nm. The “Total (signal)” value in series [5] (1 Min) was 109682.80; in series [5] (17 Min), 282046.59; in series [5] (45 Min), 286573.94; in series [5] (71 Min) it was 266647.59; in series [5] (190 Min), 139736.97; in series [5] (276 Min), 76493.30. In addition, the “Total (signal)” value in series [5] (1435 Min) is 1652.69. The Clearance in vivo result in series [5] (nude mice, imaged over 24 h) is given as “good clearance”. Besides, in series [6], the “Non-specific binding of the dye component alone” value is on record as “Relatively high binding”.
`CC1(C)C(/C=C/C2=C(Oc3ccc(S(=O)(=O)[O-])cc3)C(=C/C=C3/N(CCCCCC(=O)NCCC(=O)N4Cc5ccccc5C#Cc5ccccc54)c4ccc(S(=O)(=O)[O-])cc4C3(C)C)/CCC2)=[N+](CCCCS(=O)(=O)[O-])c2ccc(S(=O)(=O)[O-])cc21.[Na+].[Na+].[Na+]` [Compound 30]: the “Peak fluorescence emission intensity” value in series [1] is 1203780.
Still for that read-out and setting: next, `CC1(C)C(/C=C/C2=C(Oc3ccc(S(=O)(=O)[O-])cc3)C(=C/C=C3/N(CCCCS(=O)(=O)[O-])c4ccc(S(=O)(=O)[O-])cc4C3(C)C)/CCC2)=[N+](CCCCCC(=O)NCCCOCCOCCOCCCN)c2ccc(S(=O)(=O)[O-])cc21.O=C(O)C(F)(F)F.[Na+].[Na+].[Na+]` [Compound 32]: 1343900.
Regarding `CC1(C)C(/C=C/C2=C(Oc3ccc(S(=O)(=O)[O-])cc3)C(=C/C=C3/N(CCCCS(=O)(=O)[O-])c4ccc(S(=O)(=O)[O-])cc4C3(C)C)/CCC2)=[N+](CCCCCC(=O)NCCCCCCNC(=O)CCCCC[N+]2=C(/C=C/C3=C(c4ccccc4F)C(=C/C=C4/N(CCCS(=O)(=O)[O-])c5ccc(N(CCCS(=O)(=O)[O-])CCCS(=O)(=O)[O-])cc5C4(C)C)/CCC3)C(C)(C)c3c2ccc2cc(S(=O)(=O)[O-])ccc32)c2ccc(S(=O)(=O)[O-])cc21.[Na+].[Na+].[Na+].[Na+].[Na+].[Na+]` [Compound 37], in series [1], the “Peak fluorescence emission intensity” value is 519267 and the “Percent Quenching” value worked out at 61.4%.
Consider `CC1(C)C(/C=C/C2=C(Oc3ccc(S(=O)(=O)[O-])cc3)C(=C/C=C3/N(CCCCCC(=O)NCCOCCOCCOCCN=[N+]=[N-])c4ccc(S(=O)(=O)[O-])cc4C3(C)C)/CCC2)=[N+](CCCCS(=O)(=O)[O-])c2ccc(S(=O)(=O)[O-])cc21.[Na+].[Na+].[Na+]` [Compound 29, sodium 2-((E)-2-((E)-3-((E)-2-(1-(1-azido-13-oxo-3,6,9-trioxa-12-azaoctadecan-18-yl)-3,3-dimethyl-5-sulfonatoindolin-2-ylidene)ethylidene)-2-(4-sulfonatophenoxy)cyclohex-1-enyl)vinyl)-3,3-dimethyl-1-(4-sulfonatobutyl)-3H-indolium-5-sulfonate], for which, in series [1], the “Peak fluorescence emission intensity” value turned out to be 1245060.
As for `CC1(C)C(/C=C/C2=C(Oc3ccc(S(=O)(=O)[O-])cc3)C(=C/C=C3/N(CCCCS(=O)(=O)[O-])c4ccc(S(=O)(=O)[O-])cc4C3(C)C)/CCC2)=[N+](CCCCCC(=O)NCCOCCOCCOCCOCCOCCOCCOCCOCCOCCOCCOCCN)c2ccc(S(=O)(=O)[O-])cc21.O=C(O)C(F)(F)F.[Na+].[Na+].[Na+]` [IRDye 800CW-PEG11-NH2], in series [1], the “Peak fluorescence emission intensity” value is 1272820.
